# Measured values: patent publication US20250170104A1, “INHIBITORS OF PSEUDOMONAS AERUGINOSA VIRULENCE FACTOR Lasß” (priority 2022, published 2025)
# Columns and labels:
# [1] = system: P. aeruginosa PA-14; assay: MIC determination assay / antibacterial activity; type: cell-based; conditions: Pseudomonas aeruginosa, PA14
# Method: Assays regarding the determination of the minimum inhibitory concentration (MIC) were performed as described previously (Elgaher W A M, Fruth M, Groh M, Haupenthal J, Hartmann R W. Expanding the scaffold for bacterial RNA polymerase inhibitors: design, synthesis and structure-activity relationships of ureido-heterocyclic-carboxylic acids. RSC Adv. 2013 Dec. 3; 4(5):2177-94). The experiments were based on the P. aeruginosa strain PA14. For the case that no MIC value could be determined due to activity reasons, percentage (%) inhibition at 100 μM (or lower, depending on the solubility of the compounds) was calculated. The OD600 was measured 0 and 16 h after inhibitor addition in a CLARIOstar Platereader (BMG Labtech, Ortenberg, Germany).
# [2] = system: P. aeruginosa PAO1 (strain DSM22644); assay: G. mellonella larvae survival after PAO1 infection; type: in vivo; conditions: for Final survival percentage of larvae: 3 CFU/Larva, 24 h
# Method: Bacteria were grown overnight, diluted to OD600 of 0.025 in 10 ml medium, and grown for approx. 2 hours at 37° C. inside a shaker incubator until the OD600 of 1.8-2 is reached. The culture was then serially diluted in sterile PBS (pH=7.2). Bacterial densities of 3000, 300, 30, and 3 CFU/Larva were selected for injection into groups of 15 larvae. A total volume of 5 μl was injected into each larva via the hindmost left proleg by using a syringe pump and Sterican® needles (0.30×12 mm, 30G×½). In addition, control group without injection for the quality of the larvae and a PBS control to monitor the effect of the injection were included in the experiment. All test groups and control groups were incubated at 37° C. in the dark and monitored every 2 hours from 17 hours post-infection.
# In vivo evaluation of compounds 162 and 169. Bacteria were cultured and prepared according to the previous section. Final concentrations of 50 μM, 25 μM, and 12.5 μM in combination with 3 CFU/Larva were injected into groups of 15 larvae. In addition to no injection and PBS controls, one group was infected with 3 CFU/Larva and considered the negative control. All test groups and control groups were incubated at 37° C. in the dark and monitored every 2 hours from 17 hours post-infection.
compound,measurement,setting,value
"CC(C)CC(C(=O)NO)C(=O)Nc1ccc(Cn2cc(CNS(=O)(=O)CC(C)C)nn2)cc1 (centres unmarked) [Compound 169, 2-(Hydroxycarbamoyl)-N-[4-[[4-[(isobutylsulfonylamino)methyl]triazol-1-yl]methyl]phenyl]-4-methyl-pentanamide]",IC50,[1],> 100 µM
same,Final survival percentage of larvae,[2]; 12.5 μM,53%
same,Final survival percentage of larvae,[2]; 25 μM,73%
same,Final survival percentage of larvae,[2]; 50 μM,82%
same,Improvement in survival of larvae compared to negative control,"[2]; 50 μM, vs 3 CFU/Larva without treatment",40%
